What all share (settings): synthetic library passage 3, intravenous, relative to wild-type AAV9
The test system of assay [1] is brain. The experiment in a line: NGS fold enrichment of synthetic library (passage 3) in BALB/c mice, first cross-species screen. It counts as in vivo. The procedure: (§1) After creation of the synthetic library with the sub-selected variants, the synthetic library was screened (passage 3) in two NHPs (2-4 years of age) and two strains of mice, BALB/c (n=3, 6-8 weeks of age) and C57Bl/6 mice (n=3, 6-8 weeks of age), in a first cross-species evolution screen. The animals were injected intravenously with the synthetic library. After a period in vivo, (e.g., 28-days) RNA was extracted from nervous tissue, e.g., brain, spinal cord, and DRG of the NHPs and the brains of mice. Following RNA recovery and RT-PCR amplification, a systematic NGS enrichment analysis was performed, and the peptides comprised within the variants were identified and the capsid enrichment ratio for each variant compared to the wild-type AAV9 control was calculated (fold enrichment relative to wild-type AAV9) (Table 9). […] All animals were dosed intravenously at […] across the screen.

Assay [2] has as its system brain, spinal cord, and DRG of the NHPs. The experiment in a line: NGS fold enrichment of synthetic library (passage 3) in NHPs, first cross-species screen. Type of assay: in vivo, cynomolgus macaques (Macaca fascicularis). The procedure: as §1
The test system of assay [3] is brain. The experiment in a line: NGS fold enrichment of synthetic library (passage 3) in C57Bl/6 mice, first cross-species screen. It counts as in vivo. The procedure:
as §1

The mark [4] stands for this setting: RNA from brain of BALB/c mice, NGS.
[5] abbreviates: RNA from spinal cord of NHPs, NGS.
The mark [6] stands for this setting: RNA from brain of C57Bl/6 mice, NGS.

With GTTAHQPSGQNQQT, the “Fold enrichment over AAV9 in the brain of Mice (BALB/c)” value (“Fold enrichment over AAV9 … (BALB/c)” for short) in assay [1] (setting [4]) is 0.275 fold. In addition, the “Fold enrichment over AAV9 in the brain of NHPs” value in assay [2] (RNA from brain of NHPs, NGS) is given as 1.138 fold. In addition, in assay [2] (setting [5]), the “Fold enrichment over AAV9 in the spinal cord of NHPs” value came out at 0.211 fold. Also, the “Fold enrichment over AAV9 in the brain of Mice (C57Bl/6)” value (shortened to “Fold enrichment over AAV9 … (C57Bl/6)”) in assay [3] (setting [6]) is given as 0.726 fold.
Taken in the same sequence, the figures for GSLHAGLSGQNQQT were 0.936 fold, 1.408 fold, 1.739 fold and 1.286 fold.
As to GSGQTRMPLANQQT, in assay [1] (setting [4]), the “Fold enrichment over AAV9 … (BALB/c)” value amounted to 0.273 fold. In addition, in assay [2] (RNA from brain of NHPs, NGS), the “Fold enrichment over AAV9 in the brain of NHPs” value turned out to be 1.296 fold. For the same sequence, the “Fold enrichment over AAV9 in the spinal cord of NHPs” value in assay [2] (setting [5]) is 0.790 fold. Also, in assay [3] (setting [6]), the “Fold enrichment over AAV9 … (C57Bl/6)” value is listed as 0.447 fold.
Take GSSGRDMGGQNQQT: the “Fold enrichment over AAV9 … (BALB/c)” value in assay [1] (RNA NGS, brain of BALB/c mice) is given as 0.595 fold. The “Fold enrichment over AAV9 in the brain of NHPs” value in assay [2] (RNA NGS, brain of NHPs) is reported as 1.778 fold. The “Fold enrichment over AAV9 in the spinal cord of NHPs” value in assay [2] (RNA NGS, spinal cord of NHPs) is 2.177 fold. The “Fold enrichment over AAV9 … (C57Bl/6)” value in assay [3] (RNA NGS, brain of C57Bl/6 mice) was determined as 1.052 fold.
Regarding GSGSNMRLSQNQQT, in assay [1] (setting [4]), the “Fold enrichment over AAV9 … (BALB/c)” value came out at 0.730 fold. In assay [2] (RNA from brain of NHPs, NGS), the “Fold enrichment over AAV9 in the brain of NHPs” value amounted to 1.363 fold. Further, in assay [2] (setting [5]), the “Fold enrichment over AAV9 in the spinal cord of NHPs” value worked out at 0.588 fold. The “Fold enrichment over AAV9 … (C57Bl/6)” value in assay [3] (setting [6]) is listed as 0.962 fold.
With GSGQYASSIPNQQT, the “Fold enrichment over AAV9 … (BALB/c)” value in assay [1] (RNA NGS, brain of BALB/c mice) worked out at 0.489 fold. Besides, the “Fold enrichment over AAV9 in the brain of NHPs” value in assay [2] (RNA NGS, brain of NHPs) worked out at 2.346 fold. Further, the “Fold enrichment over AAV9 in the spinal cord of NHPs” value in assay [2] (RNA NGS, spinal cord of NHPs) worked out at 3.321 fold. Also, in assay [3] (RNA NGS, brain of C57Bl/6 mice), the “Fold enrichment over AAV9 … (C57Bl/6)” value is on record as 1.022 fold.
Consider GSGTLYPQSQNQQT, for which, in assay [1] (RNA NGS, brain of BALB/c mice), the “Fold enrichment over AAV9 … (BALB/c)” value worked out at 0.160 fold. For the same sequence, the “Fold enrichment over AAV9 in the brain of NHPs” value in assay [2] (RNA NGS, brain of NHPs) was 2.761 fold. Besides, the “Fold enrichment over AAV9 in the spinal cord of NHPs” value in assay [2] (RNA NGS, spinal cord of NHPs) amounted to 5.558 fold. In assay [3] (RNA NGS, brain of C57Bl/6 mice), the “Fold enrichment over AAV9 … (C57Bl/6)” value is listed as 0.324 fold.
Regarding GSGMIHTTAQNQQT, the “Fold enrichment over AAV9 … (BALB/c)” value in assay [1] (setting [4]) is reported as 0.276 fold. In assay [2] (RNA from brain of NHPs, NGS), the “Fold enrichment over AAV9 in the brain of NHPs” value was found to be 1.285 fold. Also, the “Fold enrichment over AAV9 in the spinal cord of NHPs” value in assay [2] (setting [5]) amounted to 0.105 fold. Also, the “Fold enrichment over AAV9 … (C57Bl/6)” value in assay [3] (setting [6]) is 0.678 fold.
For GSGQNQHHSVSQQT, the “Fold enrichment over AAV9 … (BALB/c)” value in assay [1] (RNA NGS, brain of BALB/c mice) was 0.334 fold. Also, the “Fold enrichment over AAV9 in the brain of NHPs” value in assay [2] (RNA NGS, brain of NHPs) is reported as 1.623 fold. Further, the “Fold enrichment over AAV9 in the spinal cord of NHPs” value in assay [2] (RNA NGS, spinal cord of NHPs) came out at 3.700 fold. The “Fold enrichment over AAV9 … (C57Bl/6)” value in assay [3] (RNA NGS, brain of C57Bl/6 mice) came to 0.605 fold.
For the sequence GSGLGMSTGQNQQT, the “Fold enrichment over AAV9 … (BALB/c)” value in assay [1] (RNA NGS, brain of BALB/c mice) was 0.660 fold. The “Fold enrichment over AAV9 in the brain of NHPs” value in assay [2] (RNA NGS, brain of NHPs) is given as 3.110 fold. In addition, the “Fold enrichment over AAV9 in the spinal cord of NHPs” value in assay [2] (RNA NGS, spinal cord of NHPs) is given as 5.499 fold. Further, the “Fold enrichment over AAV9 … (C57Bl/6)” value in assay [3] (RNA NGS, brain of C57Bl/6 mice) was 0.458 fold.
For the sequence GSGHNQQVRTAPNT, the “Fold enrichment over AAV9 … (BALB/c)” value in assay [1] (RNA NGS, brain of BALB/c mice) is 0.580 fold. Besides, the “Fold enrichment over AAV9 in the brain of NHPs” value in assay [2] (RNA NGS, brain of NHPs) is listed as 1.885 fold. Besides, the “Fold enrichment over AAV9 in the spinal cord of NHPs” value in assay [2] (RNA NGS, spinal cord of NHPs) turned out to be 1.022 fold. Also, the “Fold enrichment over AAV9 … (C57Bl/6)” value in assay [3] (RNA NGS, brain of C57Bl/6 mice) came out at 1.006 fold.
Taken in the same sequence, the figures for GSGQNQQLKENRST were 1.118 fold, 2.765 fold, 0.062 fold and 1.149 fold.
As for GSNAQSAHGQNQQT, in assay [1] (setting [4]), the “Fold enrichment over AAV9 … (BALB/c)” value was 0.245 fold. Further, the “Fold enrichment over AAV9 in the brain of NHPs” value in assay [2] (RNA from brain of NHPs, NGS) was 1.371 fold. For the same sequence, the “Fold enrichment over AAV9 in the spinal cord of NHPs” value in assay [2] (setting [5]) worked out at 0.888 fold. Moreover, the “Fold enrichment over AAV9 … (C57Bl/6)” value in assay [3] (setting [6]) came to 0.976 fold.

The record behind these values is US20260250318A1, “COMPOSITIONS AND METHODS FOR CROSSING THE BLOOD BRAIN BARRIER” (VOYAGER THERAPEUTICS, INC., priority 2022, published 2026).
